Source: patent US9156845B2, “4-(substituted amino)-7H-pyrrolo[2,3-d] pyrimidines as LRRK2 inhibitors” (Pfizer Inc., priority 2012, dated 2015)

What was measured:
mutant G2019S LRRK2 = mutant G2019S LRRK2 (Homo sapiens (Human), UniProt Q5S007, G2019S); assay: LRRK2 Lantha Screen kinase assay, mutant enzyme; assay type: biochemical; conditions: geometric mean of 2-5 determinations unless otherwise indicated (a: >=6 determinations; b: single determination)
CaMK2g = CaMK2g (Homo sapiens (Human), UniProt Q13555); assay: ActivX kinase probe assay (human PBMC); assay type: binding; conditions: CaMK2g, read-out: percent inhibition
CDK2 = CDK2 (Homo sapiens (Human), UniProt P24941); assay: ActivX kinase probe assay (human PBMC); assay type: binding; conditions: CDK2, read-out: percent inhibition
EphA1 = EphA1 (Homo sapiens (Human), UniProt P21709); assay: ActivX kinase probe assay (human PBMC); assay type: binding; conditions: EphA1, read-out: percent inhibition
Sequence of EphA1 (P21709 26-976): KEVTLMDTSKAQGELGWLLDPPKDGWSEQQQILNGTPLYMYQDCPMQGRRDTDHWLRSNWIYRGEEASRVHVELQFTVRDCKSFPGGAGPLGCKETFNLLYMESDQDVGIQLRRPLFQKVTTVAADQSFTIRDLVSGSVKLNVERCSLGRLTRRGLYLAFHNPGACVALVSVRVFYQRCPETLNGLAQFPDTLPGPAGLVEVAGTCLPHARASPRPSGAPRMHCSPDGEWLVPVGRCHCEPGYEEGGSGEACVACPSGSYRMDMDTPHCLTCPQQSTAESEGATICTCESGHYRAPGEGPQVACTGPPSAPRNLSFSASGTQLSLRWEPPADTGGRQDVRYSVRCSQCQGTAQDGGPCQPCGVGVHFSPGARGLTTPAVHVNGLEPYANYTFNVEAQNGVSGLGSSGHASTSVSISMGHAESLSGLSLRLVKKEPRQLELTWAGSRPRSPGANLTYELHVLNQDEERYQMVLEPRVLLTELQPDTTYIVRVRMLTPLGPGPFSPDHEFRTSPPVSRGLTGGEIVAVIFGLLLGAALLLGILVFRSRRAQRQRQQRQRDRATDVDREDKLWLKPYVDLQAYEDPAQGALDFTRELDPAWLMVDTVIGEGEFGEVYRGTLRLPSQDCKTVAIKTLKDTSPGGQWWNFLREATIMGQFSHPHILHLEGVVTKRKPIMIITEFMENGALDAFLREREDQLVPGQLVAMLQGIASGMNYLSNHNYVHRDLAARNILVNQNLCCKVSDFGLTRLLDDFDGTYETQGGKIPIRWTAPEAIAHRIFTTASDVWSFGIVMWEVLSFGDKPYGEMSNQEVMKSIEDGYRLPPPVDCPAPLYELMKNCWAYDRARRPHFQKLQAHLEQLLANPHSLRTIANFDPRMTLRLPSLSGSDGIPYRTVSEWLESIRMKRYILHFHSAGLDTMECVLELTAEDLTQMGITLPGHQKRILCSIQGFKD

FER = FER (Homo sapiens (Human), UniProt P16591); assay: ActivX kinase probe assay (human PBMC); assay type: binding; conditions: FER, read-out: percent inhibition
FYN = FYN (Homo sapiens (Human), UniProt P06241); assay: ActivX kinase probe assay (human PBMC); assay type: binding; conditions: FYN, read-out: percent inhibition
ILK = ILK (Homo sapiens (Human), UniProt Q13418); assay: ActivX kinase probe assay (human PBMC); assay type: binding; conditions: ILK, read-out: percent inhibition
Sequence of ILK (Q13418 whole entry): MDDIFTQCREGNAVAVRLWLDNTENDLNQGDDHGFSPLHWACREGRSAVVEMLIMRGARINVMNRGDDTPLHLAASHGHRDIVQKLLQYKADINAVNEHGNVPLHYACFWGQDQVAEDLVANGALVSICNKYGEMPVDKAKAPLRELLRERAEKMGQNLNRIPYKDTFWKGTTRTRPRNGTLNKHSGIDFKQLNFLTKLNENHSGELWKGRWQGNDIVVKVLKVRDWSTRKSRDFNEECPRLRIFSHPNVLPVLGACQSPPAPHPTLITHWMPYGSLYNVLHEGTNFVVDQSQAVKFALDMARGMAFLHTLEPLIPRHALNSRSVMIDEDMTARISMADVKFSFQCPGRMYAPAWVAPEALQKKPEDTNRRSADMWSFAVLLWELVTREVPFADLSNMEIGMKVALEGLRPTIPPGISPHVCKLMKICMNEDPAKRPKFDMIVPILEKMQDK

LATS2 = LATS2 (Homo sapiens (Human), UniProt Q9NRM7); assay: ActivX kinase probe assay (human PBMC); assay type: binding; conditions: LATS2, read-out: percent inhibition
LKB1 = LKB1 (Homo sapiens (Human), UniProt Q15831); assay: ActivX kinase probe assay (human PBMC); assay type: binding; conditions: LKB1, read-out: percent inhibition
LOK = LOK (Homo sapiens (Human), UniProt O94804); assay: ActivX kinase probe assay (human PBMC); assay type: binding; conditions: LOK, read-out: percent inhibition
Sequence of LOK (O94804 whole entry): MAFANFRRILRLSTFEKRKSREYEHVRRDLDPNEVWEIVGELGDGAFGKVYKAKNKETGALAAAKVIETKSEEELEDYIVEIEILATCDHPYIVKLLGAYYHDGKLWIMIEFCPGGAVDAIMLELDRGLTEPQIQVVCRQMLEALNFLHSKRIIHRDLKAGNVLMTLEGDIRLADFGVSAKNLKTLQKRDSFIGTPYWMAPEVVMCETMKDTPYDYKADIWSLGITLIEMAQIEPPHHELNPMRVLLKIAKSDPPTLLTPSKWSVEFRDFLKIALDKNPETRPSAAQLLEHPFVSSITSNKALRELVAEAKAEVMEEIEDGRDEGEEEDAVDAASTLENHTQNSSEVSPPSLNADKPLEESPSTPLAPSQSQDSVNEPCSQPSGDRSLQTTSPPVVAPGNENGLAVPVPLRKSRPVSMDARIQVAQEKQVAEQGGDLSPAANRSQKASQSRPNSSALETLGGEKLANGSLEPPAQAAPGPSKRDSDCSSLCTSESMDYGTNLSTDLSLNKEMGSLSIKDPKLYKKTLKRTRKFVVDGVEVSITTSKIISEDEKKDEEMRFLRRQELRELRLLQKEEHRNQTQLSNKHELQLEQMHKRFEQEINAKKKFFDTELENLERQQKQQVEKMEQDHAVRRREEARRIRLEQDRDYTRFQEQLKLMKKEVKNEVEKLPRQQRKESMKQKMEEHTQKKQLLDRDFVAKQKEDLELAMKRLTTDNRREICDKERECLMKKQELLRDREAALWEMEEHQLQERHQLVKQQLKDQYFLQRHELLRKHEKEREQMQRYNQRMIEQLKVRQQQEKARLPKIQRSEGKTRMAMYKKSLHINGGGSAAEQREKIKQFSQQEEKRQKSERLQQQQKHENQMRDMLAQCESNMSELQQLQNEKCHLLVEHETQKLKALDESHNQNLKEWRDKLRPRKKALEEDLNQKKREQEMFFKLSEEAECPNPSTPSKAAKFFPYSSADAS

MAP3K4 = MAP3K4 (Homo sapiens (Human), UniProt Q9Y6R4); assay: ActivX kinase probe assay (human PBMC); assay type: binding; conditions: MAP3K4, read-out: percent inhibition
MAP3K5 = MAP3K5 (Homo sapiens (Human), UniProt Q99683); assay: ActivX kinase probe assay (human PBMC); assay type: binding; conditions: MAP3K5, read-out: percent inhibition
MST1 = MST1 (Homo sapiens (Human), UniProt Q13043); assay: ActivX kinase probe assay (human PBMC); assay type: binding; conditions: read-out: percent inhibition
MST1, MST2 = assay: ActivX kinase probe assay (human PBMC); assay type: binding
MST2 = MST2 (Homo sapiens (Human), UniProt Q13188); assay: ActivX kinase probe assay (human PBMC); assay type: binding; conditions: read-out: percent inhibition
Sequence of MST2 (Q13188 whole entry): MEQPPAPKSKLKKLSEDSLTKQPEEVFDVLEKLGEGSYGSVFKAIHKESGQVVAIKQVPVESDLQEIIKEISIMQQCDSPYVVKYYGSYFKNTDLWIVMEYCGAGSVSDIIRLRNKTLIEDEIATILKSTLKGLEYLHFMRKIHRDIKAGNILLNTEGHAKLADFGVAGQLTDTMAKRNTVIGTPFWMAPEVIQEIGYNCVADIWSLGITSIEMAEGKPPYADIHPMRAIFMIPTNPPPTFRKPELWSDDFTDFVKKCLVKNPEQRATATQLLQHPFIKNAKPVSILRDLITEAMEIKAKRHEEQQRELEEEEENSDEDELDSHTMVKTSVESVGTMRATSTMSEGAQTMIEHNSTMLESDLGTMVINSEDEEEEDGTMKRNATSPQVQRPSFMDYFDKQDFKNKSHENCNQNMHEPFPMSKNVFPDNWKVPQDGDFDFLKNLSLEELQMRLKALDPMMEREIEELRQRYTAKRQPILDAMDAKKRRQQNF

NEK1 = NEK1 (Homo sapiens (Human), UniProt Q96PY6); assay: ActivX kinase probe assay (human PBMC); assay type: binding; conditions: NEK1, read-out: percent inhibition
Sequence of NEK1 (Q96PY6 whole entry): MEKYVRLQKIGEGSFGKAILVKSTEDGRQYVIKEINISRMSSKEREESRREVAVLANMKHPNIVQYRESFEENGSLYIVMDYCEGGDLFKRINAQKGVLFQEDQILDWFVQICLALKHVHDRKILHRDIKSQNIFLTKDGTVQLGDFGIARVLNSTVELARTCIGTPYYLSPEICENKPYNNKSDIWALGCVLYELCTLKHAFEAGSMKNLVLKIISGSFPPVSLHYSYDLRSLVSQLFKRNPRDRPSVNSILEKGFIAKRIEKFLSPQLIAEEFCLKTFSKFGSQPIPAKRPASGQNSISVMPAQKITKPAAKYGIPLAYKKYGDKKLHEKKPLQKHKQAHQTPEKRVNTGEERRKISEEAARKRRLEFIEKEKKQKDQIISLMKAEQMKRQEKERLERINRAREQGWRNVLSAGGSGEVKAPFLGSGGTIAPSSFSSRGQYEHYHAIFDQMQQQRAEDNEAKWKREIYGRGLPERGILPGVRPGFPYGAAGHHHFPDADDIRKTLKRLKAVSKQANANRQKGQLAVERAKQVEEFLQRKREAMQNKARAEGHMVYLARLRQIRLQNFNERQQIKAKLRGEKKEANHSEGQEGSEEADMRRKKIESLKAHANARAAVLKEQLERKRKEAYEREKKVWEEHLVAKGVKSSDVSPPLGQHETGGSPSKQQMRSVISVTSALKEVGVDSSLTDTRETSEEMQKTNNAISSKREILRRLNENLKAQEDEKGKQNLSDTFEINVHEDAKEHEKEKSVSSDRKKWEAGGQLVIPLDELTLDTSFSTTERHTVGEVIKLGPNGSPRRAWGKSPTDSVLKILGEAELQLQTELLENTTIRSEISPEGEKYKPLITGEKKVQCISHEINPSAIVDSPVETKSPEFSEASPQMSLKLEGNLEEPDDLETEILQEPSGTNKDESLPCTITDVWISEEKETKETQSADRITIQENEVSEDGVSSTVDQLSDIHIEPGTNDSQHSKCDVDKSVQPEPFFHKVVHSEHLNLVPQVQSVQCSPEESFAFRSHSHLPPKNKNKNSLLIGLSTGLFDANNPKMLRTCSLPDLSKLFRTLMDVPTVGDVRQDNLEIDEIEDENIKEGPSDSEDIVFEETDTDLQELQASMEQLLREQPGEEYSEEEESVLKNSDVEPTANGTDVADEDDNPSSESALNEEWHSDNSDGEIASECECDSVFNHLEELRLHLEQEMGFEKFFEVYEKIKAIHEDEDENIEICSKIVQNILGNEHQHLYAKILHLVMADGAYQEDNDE

NEK6, NEK7 = assay: ActivX kinase probe assay (human PBMC); assay type: binding
NEK7 = NEK7 (Homo sapiens (Human), UniProt Q8TDX7); assay: ActivX kinase probe assay (human PBMC); assay type: binding; conditions: NEK7, read-out: percent inhibition
Sequence of NEK7 (Q8TDX7 whole entry): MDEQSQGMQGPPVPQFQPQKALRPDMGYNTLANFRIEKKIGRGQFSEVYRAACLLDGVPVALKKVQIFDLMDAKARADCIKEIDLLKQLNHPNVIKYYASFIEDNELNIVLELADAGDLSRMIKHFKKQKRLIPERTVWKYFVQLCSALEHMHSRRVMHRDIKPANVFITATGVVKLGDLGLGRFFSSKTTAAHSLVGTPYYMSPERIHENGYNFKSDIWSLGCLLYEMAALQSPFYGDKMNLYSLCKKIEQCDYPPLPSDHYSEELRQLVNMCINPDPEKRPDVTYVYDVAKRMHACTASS

OSR1 = OSR1 (Homo sapiens (Human), UniProt O95747); assay: ActivX kinase probe assay (human PBMC); assay type: binding; conditions: OSR1, read-out: percent inhibition
Sequence of OSR1 (O95747 whole entry): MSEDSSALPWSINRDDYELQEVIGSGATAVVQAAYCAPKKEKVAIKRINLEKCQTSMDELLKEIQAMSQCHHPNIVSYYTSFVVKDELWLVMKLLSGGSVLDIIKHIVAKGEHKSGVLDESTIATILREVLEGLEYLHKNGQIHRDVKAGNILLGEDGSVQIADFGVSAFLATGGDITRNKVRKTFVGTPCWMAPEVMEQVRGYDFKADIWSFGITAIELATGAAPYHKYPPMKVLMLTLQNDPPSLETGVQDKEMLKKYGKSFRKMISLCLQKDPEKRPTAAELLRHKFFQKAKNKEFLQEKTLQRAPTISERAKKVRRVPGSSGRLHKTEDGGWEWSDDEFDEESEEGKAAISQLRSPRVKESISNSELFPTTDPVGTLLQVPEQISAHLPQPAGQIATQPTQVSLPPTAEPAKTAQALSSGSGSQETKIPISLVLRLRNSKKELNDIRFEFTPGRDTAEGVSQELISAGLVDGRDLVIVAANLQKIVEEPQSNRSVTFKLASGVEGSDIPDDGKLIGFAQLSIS

PAN3 = PAN3 (Homo sapiens (Human), UniProt Q58A45); assay: ActivX kinase probe assay (human PBMC); assay type: binding; conditions: PAN3, read-out: percent inhibition
PRPK = PRPK (Homo sapiens (Human), UniProt Q96S44); assay: ActivX kinase probe assay (human PBMC); assay type: binding; conditions: read-out: percent inhibition
Method: Certain of the compounds of the present invention were assessed for kinase selectivity using a commercially available ActiveX targeted kinase probe in which the tissue employed was human peripheral blood mononuclear cells (PBMC). The test compounds were provided to ActivX Biosciences, Inc., 11025 North Torrey Pines Road, Suite 120; LaJolla, Calif., USA 92037. The compounds were run in the ActivX proprietary kinase assay and results were obtained at compound test concentrations of 1 μM (columns 2, 4 and 6) and 0.1 μM (columns 3, 5 and 7). The results as percent inhibition obtained for the compounds of Examples 1, 4 and 217 are provided below in Table 3.

PYK2 = PYK2 (Homo sapiens (Human), UniProt Q14289); assay: ActivX kinase probe assay (human PBMC); assay type: binding; conditions: PYK2, read-out: percent inhibition
RSK1 domain1 = RSK1 domain1 (Homo sapiens (Human), UniProt Q15418); assay: ActivX kinase probe assay (human PBMC); assay type: binding; conditions: RSK1 domain1, read-out: percent inhibition
RSK1, RSK2, RSK3 domain1 = assay: ActivX kinase probe assay (human PBMC); assay type: binding
SGK3 = SGK3 (Homo sapiens (Human), UniProt Q96BR1); assay: ActivX kinase probe assay (human PBMC); assay type: binding; conditions: SGK3, read-out: percent inhibition
SRC = SRC (Homo sapiens (Human), UniProt P12931); assay: ActivX kinase probe assay (human PBMC); assay type: binding; conditions: SRC, read-out: percent inhibition
TBK1 = TBK1 (Homo sapiens (Human), UniProt Q9UHD2); assay: ActivX kinase probe assay (human PBMC); assay type: binding; conditions: TBK1, read-out: percent inhibition
ZAK = ZAK (Homo sapiens (Human), UniProt Q9NYL2); assay: ActivX kinase probe assay (human PBMC); assay type: binding; conditions: ZAK, read-out: percent inhibition

Structure (SMILES): Cn1cc(-c2c[nH]c3ncnc(N4CCOCC4)c23)cc1C#N [Example 217, 1-methyl-4-[4-(morpholin-4-yl)-7H-pyrrolo[2,3-d]pyrimidin-5-yl]-1H-pyrrole-2-carbonitrile]
- IC50 (mutant G2019S LRRK2): 13 nM
- inhibition at 0.1 µM (CaMK2g): 4.3%
- inhibition at 1 µM (CaMK2g): 18.7%
- inhibition at 0.1 µM (CDK2): 3.6%
- inhibition at 1 µM (CDK2): 16.5%
- inhibition at 0.1 µM (EphA1): 11.1%
- inhibition at 1 µM (EphA1): -16.1%
- inhibition at 0.1 µM (FER): 5.2%
- inhibition at 1 µM (FER): 16.3%
- inhibition at 0.1 µM (FYN): -2.1%
- inhibition at 1 µM (FYN): -6.8%
- inhibition at 0.1 µM (ILK): -6.3%
- inhibition at 1 µM (ILK): -3.8%
- inhibition at 0.1 µM (LATS2): 5.8%
- inhibition at 1 µM (LATS2): -23.7%
- inhibition at 0.1 µM (LKB1): -5.3%
- inhibition at 1 µM (LKB1): 2.4%
- inhibition at 0.1 µM (LOK): -6.4%
- inhibition at 1 µM (LOK): 56.1%
- inhibition at 0.1 µM (MAP3K4): -35.5%
- inhibition at 1 µM (MAP3K4): -27.4%
- inhibition at 0.1 µM (MAP3K5): 7%
- inhibition at 1 µM (MAP3K5): 44.5%
- inhibition at 0.1 µM (MST1): 25.6%
- inhibition at 1 µM (MST1): 73.5%
- percent inhibition (MST1, MST2; 0.1 μM): 21.9%
- percent inhibition (MST1, MST2; 1 μM): 72.6%
- inhibition at 0.1 µM (MST2): 34.9%
- inhibition at 1 µM (MST2): 83.2%
- inhibition at 0.1 µM (NEK1): 4.8%
- inhibition at 1 µM (NEK1): -5.1%
- percent inhibition (NEK6, NEK7; 0.1 μM): −2.9%
- percent inhibition (NEK6, NEK7; 1 μM): 6.4%
- inhibition at 0.1 µM (NEK7): -9%
- inhibition at 1 µM (NEK7): -2.3%
- inhibition at 0.1 µM (OSR1): 5.2%
- inhibition at 1 µM (OSR1): -12.3%
- inhibition at 0.1 µM (PAN3): 5.6%
- inhibition at 1 µM (PAN3): -7.5%
- inhibition at 0.1 µM (PRPK): 2.6%
- inhibition at 1 µM (PRPK): 12.5%
- inhibition at 0.1 µM (PYK2): -1%
- inhibition at 1 µM (PYK2): 8.4%
- inhibition at 0.1 µM (RSK1 domain1): 27.6%
- inhibition at 1 µM (RSK1 domain1): 45.6%
- percent inhibition (RSK1, RSK2, RSK3 domain1; 0.1 μM): 5.0%
- percent inhibition (RSK1, RSK2, RSK3 domain1; 1 μM): 48.5%
- inhibition at 0.1 µM (SGK3): 8.5%
- inhibition at 1 µM (SGK3): 16.9%
- inhibition at 0.1 µM (SRC): -1%
- inhibition at 1 µM (SRC): 1.1%
- inhibition at 0.1 µM (TBK1): 1.9%
- inhibition at 1 µM (TBK1): 0.1%
- inhibition at 0.1 µM (ZAK): -2.9%
- inhibition at 1 µM (ZAK): -1.2%

Structure (SMILES): Cn1cc(-c2c[nH]c3ncnc(N4CCOCC4)c23)cn1 [Example 1, 5-(1-Methyl-1H-pyrazol-4-yl)-4-(morpholin-4-yl)-7H-pyrrolo[2,3-d]pyrimidine]
- IC50 (mutant G2019S LRRK2): 36 nM
- inhibition at 0.1 µM (CaMK2g): -16.9%
- inhibition at 1 µM (CaMK2g): -15.5%
- inhibition at 0.1 µM (CDK2): -12.1%
- inhibition at 1 µM (CDK2): 9.5%
- inhibition at 0.1 µM (EphA1): -9.5%
- inhibition at 1 µM (EphA1): 19.6%
- inhibition at 0.1 µM (FER): -7.3%
- inhibition at 1 µM (FER): -17.9%
- inhibition at 0.1 µM (FYN): 6.7%
- inhibition at 1 µM (FYN): -10.1%
- inhibition at 0.1 µM (ILK): -34%
- inhibition at 1 µM (ILK): -56.6%
- inhibition at 0.1 µM (LATS2): 21.2%
- inhibition at 1 µM (LATS2): 11%
- inhibition at 0.1 µM (LKB1): -1.1%
- inhibition at 1 µM (LKB1): -14%
- inhibition at 0.1 µM (LOK): 5.7%
- inhibition at 1 µM (LOK): 22.6%
- inhibition at 0.1 µM (MAP3K4): -14%
- inhibition at 1 µM (MAP3K4): 6.9%
- inhibition at 0.1 µM (MAP3K5): 6.2%
- inhibition at 1 µM (MAP3K5): 2.1%
- inhibition at 0.1 µM (MST1): 13.2%
- inhibition at 1 µM (MST1): 50.8%
- percent inhibition (MST1, MST2; 0.1 μM): −14.5%
- percent inhibition (MST1, MST2; 1 μM): 24.8%
- inhibition at 0.1 µM (MST2): 10.1%
- inhibition at 1 µM (MST2): 49.4%
- inhibition at 0.1 µM (NEK1): 7%
- inhibition at 1 µM (NEK1): -10.1%
- percent inhibition (NEK6, NEK7; 0.1 μM): −1.7%
- percent inhibition (NEK6, NEK7; 1 μM): −17%
- inhibition at 0.1 µM (NEK7): -0.6%
- inhibition at 1 µM (NEK7): -18.8%
- inhibition at 0.1 µM (OSR1): -7.8%
- inhibition at 1 µM (OSR1): -4%
- inhibition at 0.1 µM (PAN3): 0.6%
- inhibition at 1 µM (PAN3): 0.8%
- inhibition at 0.1 µM (PRPK): -3.4%
- inhibition at 1 µM (PRPK): -13.8%
- inhibition at 0.1 µM (PYK2): 5.9%
- inhibition at 1 µM (PYK2): 19.5%
- inhibition at 0.1 µM (RSK1 domain1): 16.3%
- inhibition at 1 µM (RSK1 domain1): 59.8%
- percent inhibition (RSK1, RSK2, RSK3 domain1; 0.1 μM): 3%
- percent inhibition (RSK1, RSK2, RSK3 domain1; 1 μM): 18.7%
- inhibition at 0.1 µM (SGK3): 2.5%
- inhibition at 1 µM (SGK3): 9.9%
- inhibition at 0.1 µM (SRC): 1.5%
- inhibition at 1 µM (SRC): 9.7%
- inhibition at 0.1 µM (TBK1): 0.1%
- inhibition at 1 µM (TBK1): 13.4%
- inhibition at 0.1 µM (ZAK): 15%
- inhibition at 1 µM (ZAK): 23.1%
